Assay results published in patent publication US9580413B2, “Substituted pyrrolidines as ROS tyrosine kinase inhibitors” (NIPPON SHINYAKU CO., LTD., priority 2012, dated 2017).
Counter-ions that a name gives are not always drawn.

Columns and labels:
ROS tyrosine kinase = target: T1, ROS tyrosine kinase (Homo sapiens, UniProt P08922); experiment: ROS tyrosine kinase inhibitory activity test (ELISA); assay type: biochemical, humans; conditions: 25 μM ATP substrate solution, 30° C., one hour
T1 construct: purchased Carna Biosciences, Inc
Experimental: (§1) 1. Preparation of Test Substance:
(§2) A test substance was dissolved in dimethyl sulfoxide (DMSO) to 10 mM and further diluted with DMSO to concentrations of 100-fold of the concentrations to be measured (100, 10, 1, 0.1, and 0.01 μM). Furthermore, the resultant was diluted with an assay buffer to 20-fold, thereby preparing a solution as a test substance solution. A solution prepared by diluting DMSO with an assay buffer to 20-fold was used as a negative control. A buffer containing 15 mM Tris-Cl (pH 7.5), 0.01 (v/v) % Tween-20, and 1 mM dithiothreitol was used as the assay buffer.
(§3) 2. Measurement of ROS Tyrosine Kinase Activity and JAK2 Tyrosine Kinase Activity:
(§4) The activity was measured by adopting the ELISA method. […] Finally, an ROS kinase or a JAK2 kinase (derived from humans, Carna Biosciences, Inc.) (diluted with the assay buffer to 0.25 nM) was added to the plate at 20 μL per well, and the resulting mixture was stirred. A reaction was performed at 30° C. for one hour. After the plate was washed 4 times with a washing buffer (50 mM Tris-Cl (pH 7.5), 150 mM NaCl, and 0.02 (v/v) % Tween-20), a blocking buffer (0.1% bovine serum albumin, 50 mM Tris-Cl (pH 7.5), 150 mM NaCl, and 0.02 (v/v) % Tween-20) was added to the plate at 150 μL per well, and incubated at 30° C. for 30 minutes. The blocking buffer was then removed, and a horse radish peroxidase-labeled anti-phosphorylated tyrosine antibody (BD Biosciences, Inc.) (diluted with the blocking buffer to 10,000-fold) was added to the plate at 100 μL per well, and the plate was incubated at 30° C. for 30 minutes. After the plate was washed 4 times with the washing buffer, a 3,3′,5,5′-tetramethylbenzidine solution (Sigma-Aldrich Co., Ltd.) was added to the plate at 100 μL per well to develop the color for 10 minutes. The reaction was stopped by adding 0.1 M sulfuric acid at 100 μL per well. An absorbance at 450 nm was measured with a microplate reader (Model 3550, manufactured by BIO-RAD, Benchmark, manufactured by BIO-RAD, or iMARK, manufactured by BIO-RAD).
(§5) 3. Analysis of Measurement Results:
(§6) A non-linear regression analysis was performed for the measured absorbance with an SAS system (SAS Institute Inc.), and a concentration of each of the test substances of inhibiting the ROS tyrosine kinase activity or JAK2 tyrosine kinase activity at 50% (IC50) was calculated. The inhibitory activity (IC50, nM) of each of the test substances against the ROS tyrosine kinase or JAK2 tyrosine kinase is shown in Tables 6 to 8.

JAK2 tyrosine kinase = target: T2, JAK2 tyrosine kinase (Homo sapiens, UniProt O60674); experiment: JAK2 tyrosine kinase inhibitory activity test (ELISA); assay type: biochemical, humans; conditions: 25 μM ATP substrate solution, 30° C., one hour
T2 construct: purchased Carna Biosciences, Inc
Experimental: as §1, §2, §3, §4, §5, §6

T2 sequence (O60674 whole entry): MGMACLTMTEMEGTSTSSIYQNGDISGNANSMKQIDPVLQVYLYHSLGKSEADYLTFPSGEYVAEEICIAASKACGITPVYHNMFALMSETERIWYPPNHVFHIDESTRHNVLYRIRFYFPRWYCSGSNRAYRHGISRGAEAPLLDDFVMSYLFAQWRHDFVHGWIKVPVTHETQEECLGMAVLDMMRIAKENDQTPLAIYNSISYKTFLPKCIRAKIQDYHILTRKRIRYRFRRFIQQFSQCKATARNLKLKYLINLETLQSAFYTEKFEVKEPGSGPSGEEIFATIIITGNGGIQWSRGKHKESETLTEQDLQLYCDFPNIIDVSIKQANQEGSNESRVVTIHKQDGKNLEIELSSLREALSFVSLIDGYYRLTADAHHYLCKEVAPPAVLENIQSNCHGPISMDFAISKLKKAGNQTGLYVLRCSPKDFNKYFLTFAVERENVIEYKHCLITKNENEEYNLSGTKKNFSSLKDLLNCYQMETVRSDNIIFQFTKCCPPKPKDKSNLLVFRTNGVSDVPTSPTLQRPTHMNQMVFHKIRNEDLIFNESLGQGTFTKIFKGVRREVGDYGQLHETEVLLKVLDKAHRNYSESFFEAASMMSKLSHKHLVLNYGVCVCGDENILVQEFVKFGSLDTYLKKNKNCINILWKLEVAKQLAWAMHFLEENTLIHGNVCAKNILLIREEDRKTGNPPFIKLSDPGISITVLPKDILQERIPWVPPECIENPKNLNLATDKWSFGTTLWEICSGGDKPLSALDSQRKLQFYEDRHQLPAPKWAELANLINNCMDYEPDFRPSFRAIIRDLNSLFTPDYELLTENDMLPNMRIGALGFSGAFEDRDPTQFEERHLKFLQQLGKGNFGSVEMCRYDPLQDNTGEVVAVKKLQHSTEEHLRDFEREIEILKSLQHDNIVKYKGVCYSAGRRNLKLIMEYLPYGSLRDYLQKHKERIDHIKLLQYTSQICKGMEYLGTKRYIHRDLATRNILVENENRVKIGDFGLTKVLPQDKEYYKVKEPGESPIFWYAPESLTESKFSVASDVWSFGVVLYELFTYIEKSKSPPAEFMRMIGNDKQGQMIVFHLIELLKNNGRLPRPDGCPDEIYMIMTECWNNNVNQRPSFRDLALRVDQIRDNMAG
T1 sequence (P08922 28-2347): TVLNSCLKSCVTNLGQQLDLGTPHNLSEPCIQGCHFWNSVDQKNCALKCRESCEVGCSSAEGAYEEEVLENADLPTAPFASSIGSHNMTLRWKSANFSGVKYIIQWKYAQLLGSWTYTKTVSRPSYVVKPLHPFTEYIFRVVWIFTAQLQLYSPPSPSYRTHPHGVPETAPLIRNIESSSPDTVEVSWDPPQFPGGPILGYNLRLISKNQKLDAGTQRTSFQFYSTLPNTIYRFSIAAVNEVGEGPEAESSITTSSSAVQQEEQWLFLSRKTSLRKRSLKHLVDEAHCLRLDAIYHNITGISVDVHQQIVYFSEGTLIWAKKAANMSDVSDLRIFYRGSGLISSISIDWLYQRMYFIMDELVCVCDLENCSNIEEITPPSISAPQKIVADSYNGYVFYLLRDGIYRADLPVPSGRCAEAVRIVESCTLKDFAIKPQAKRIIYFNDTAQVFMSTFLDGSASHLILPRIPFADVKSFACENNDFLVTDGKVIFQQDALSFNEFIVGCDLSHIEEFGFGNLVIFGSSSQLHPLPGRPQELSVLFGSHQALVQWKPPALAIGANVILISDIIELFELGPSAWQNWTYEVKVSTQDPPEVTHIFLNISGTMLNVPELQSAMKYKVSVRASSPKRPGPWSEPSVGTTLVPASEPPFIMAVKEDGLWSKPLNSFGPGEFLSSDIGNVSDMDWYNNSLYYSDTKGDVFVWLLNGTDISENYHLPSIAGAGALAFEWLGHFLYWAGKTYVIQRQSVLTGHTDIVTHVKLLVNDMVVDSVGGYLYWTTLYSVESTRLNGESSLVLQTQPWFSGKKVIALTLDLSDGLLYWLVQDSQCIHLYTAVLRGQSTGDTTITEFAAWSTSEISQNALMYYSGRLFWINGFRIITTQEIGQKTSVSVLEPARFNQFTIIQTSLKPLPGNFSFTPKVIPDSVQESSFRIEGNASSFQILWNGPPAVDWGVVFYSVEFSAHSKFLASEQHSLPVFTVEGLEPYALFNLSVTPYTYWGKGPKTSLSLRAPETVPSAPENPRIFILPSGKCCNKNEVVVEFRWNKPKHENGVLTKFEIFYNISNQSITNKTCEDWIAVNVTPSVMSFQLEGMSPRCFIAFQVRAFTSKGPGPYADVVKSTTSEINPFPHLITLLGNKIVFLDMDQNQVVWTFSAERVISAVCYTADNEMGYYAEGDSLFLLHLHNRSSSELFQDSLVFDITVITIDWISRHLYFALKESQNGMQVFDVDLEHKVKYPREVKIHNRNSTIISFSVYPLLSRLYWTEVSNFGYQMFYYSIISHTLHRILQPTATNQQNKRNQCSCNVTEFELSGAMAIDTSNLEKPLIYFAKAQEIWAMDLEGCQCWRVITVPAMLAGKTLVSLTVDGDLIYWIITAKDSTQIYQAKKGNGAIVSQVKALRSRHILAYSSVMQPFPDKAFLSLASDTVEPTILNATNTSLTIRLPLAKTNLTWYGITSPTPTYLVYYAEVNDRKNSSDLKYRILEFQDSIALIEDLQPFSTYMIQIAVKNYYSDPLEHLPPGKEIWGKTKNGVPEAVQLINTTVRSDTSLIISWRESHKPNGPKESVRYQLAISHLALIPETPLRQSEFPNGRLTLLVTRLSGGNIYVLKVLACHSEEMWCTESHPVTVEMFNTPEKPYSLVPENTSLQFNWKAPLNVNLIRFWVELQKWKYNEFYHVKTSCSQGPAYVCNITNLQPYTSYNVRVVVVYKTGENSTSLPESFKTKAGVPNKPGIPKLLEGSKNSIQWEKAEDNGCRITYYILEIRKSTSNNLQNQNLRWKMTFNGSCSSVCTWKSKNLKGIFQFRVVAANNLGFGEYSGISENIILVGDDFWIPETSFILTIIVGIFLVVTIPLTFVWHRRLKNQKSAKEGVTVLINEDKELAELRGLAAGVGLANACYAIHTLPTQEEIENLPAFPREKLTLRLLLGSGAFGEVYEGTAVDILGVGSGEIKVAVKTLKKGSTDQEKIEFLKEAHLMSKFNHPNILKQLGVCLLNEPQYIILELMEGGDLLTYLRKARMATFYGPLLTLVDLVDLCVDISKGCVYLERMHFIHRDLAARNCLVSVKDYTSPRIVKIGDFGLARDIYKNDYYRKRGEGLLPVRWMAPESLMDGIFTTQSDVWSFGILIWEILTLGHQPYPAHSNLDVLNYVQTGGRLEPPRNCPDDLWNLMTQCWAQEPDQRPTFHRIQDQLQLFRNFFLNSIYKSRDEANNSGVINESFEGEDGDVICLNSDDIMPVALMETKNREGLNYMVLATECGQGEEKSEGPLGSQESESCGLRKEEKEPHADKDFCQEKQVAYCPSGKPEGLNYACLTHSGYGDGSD

| SMILES | IC50 (ROS tyrosine kinase) | IC50 (JAK2 tyrosine kinase) |
| --- | --- | --- |
| COc1c(Nc2ncc(C#N)s2)nc(N2CCCC2c2ccc(C)cc2)nc1-c1cncnc1 (stereo not drawn) [Example 3, 2-({5-Methoxy-2-[2-(4-methylphenyl)pyrrolidin-1-yl]-4,5′-bipyrimidin-6-yl}amino)-1,3-thiazole-5-carbonitrile] | 8.6 nM | > 1000 nM |
| COc1c(Nc2ncc(C#N)s2)nc(N2CCCC2c2ccc(C)cc2)nc1-c1cccnc1 (stereo not drawn) [Example 5, 2-({5-Methoxy-2-[2-(4-methylphenyl)pyrrolidin-1-yl]-6-(pyridin-3-yl)pyrimidin-4-yl}amino)-1,3-thiazole-5-carbonitrile] | 8.1 nM | > 1000 nM |
| Cc1ccc(C2CCCN2c2nc(C)c(Br)c(Nc3ncc(C#N)s3)n2)cc1 (stereo not drawn) [Example 17, 2-({5-Bromo-6-methyl-2-[2-(4-methylphenyl)pyrrolidin-1-yl]pyrimidin-4-yl}amino)-1,3-thiazole-5-carbonitrile] | 39 nM | > 1000 nM |
| COc1c(Nc2ncc(C#N)s2)nc(N2CCCC2c2ccc(C)cc2)nc1C1CC1 (stereo not drawn) [Example 18, 2-({6-Cyclopropyl-5-methoxy-2-[2-(4-methylphenyl)pyrrolidin-1-yl]pyrimidin-4-yl}amino)-1,3-thiazole-5-carbonitrile] | 120 nM | > 1000 nM |
| N#Cc1cnc(Nc2nc(N3CCCC3c3ccc(F)cc3)cnc2-c2cnco2)s1 (stereo not drawn) [Example 21, 2-({6-[2-(4-Fluorophenyl)pyrrolidin-1-yl]-3-(1,3-oxazol-5-yl)pyrazin-2-yl}amino)-1,3-thiazole-5-carbonitrile] | 13 nM | > 1000 nM |
| N#Cc1cnc(Nc2nc(N3CCCC3c3ccc(F)cc3)cnc2-c2cncnc2)s1 (stereo not drawn) [Example 22, 2-({6-[2-(4-Fluorophenyl)pyrrolidin-1-yl]-3-(pyrimidin-5-yl)pyrazin-2-yl}amino)-1,3-thiazole-5-carbonitrile] | 47 nM | > 1000 nM |

Molecules with a lower IC50 (ROS tyrosine kinase), results first:

| IC50 (ROS tyrosine kinase) | IC50 (JAK2 tyrosine kinase) | SMILES |
| --- | --- | --- |
| 3.2 nM | 270 nM | Cc1ccc(C2CCCN2c2ncc(C)c(Nc3ncc(C#N)s3)n2)cc1 (stereo not drawn) [Example 2, 2-({5-Methyl-2-[2-(4-methylphenyl)pyrrolidin-1-yl]pyrimidin-4-yl}amino)-1,3-thiazole-5-carbonitrile] |
| 3.9 nM | > 1000 nM | Cc1ccc(C2CCCN2c2nc(Nc3ncc(C#N)s3)c(C)c(-c3cnn(C)c3)n2)cc1 (stereo not drawn) [Example 8, 2-({5-Methyl-2-[2-(4-methylphenyl)pyrrolidin-1-yl]-6-(1-methyl-1H-pyrazol-4-yl)pyrimidin-4-yl}amino)-1,3-thiazole-5-carbonitrile] |
| 1.1 nM | 260 nM | COc1c(Nc2ncc(C#N)s2)nc(N2CCC[C@H]2c2ccc(C)cc2)nc1-c1cnn(C)c1 [Example 10, 2-({5-Methoxy-2-[(2S)-2-(4-methylphenyl)pyrrolidin-1-yl]-6-(l-methyl-1H-pyrazol-4-yl)pyrimidin-4-yl}amino)-1,3-thiazole-5-carbonitrile] |
| 2.5 nM | 350 nM | COc1cc(C)ccc1C1CCCN1c1ncc(OC)c(Nc2ncc(C#N)s2)n1 (stereo not drawn) [Example 14, 2-({5-Methoxy-2-[2-(2-methoxy-4-methylphenyl)pyrrolidin-1-yl]pyrimidin-4-yl}amino)-1,3-thiazole-5-carbonitrile] |
| 1.5 nM | 36 nM | Cc1ccc(C2CCCN2c2nc(Nc3ncc(C#N)s3)c(C)c(-c3ccc(O)nc3)n2)cc1 (stereo not drawn) [Example 16, 2-({6-(6-Hydroxypyridin-3-yl)-5-methyl-2-[2-(4-methylphenyl)pyrrolidin-1-yl]pyrimidin-4-yl}amino)-1,3-thiazole-5-carbonitrile] |
| 1.1 nM | 250 nM | Cc1ccc([C@@H]2CCCN2c2cnc(C)c(Nc3ncc(C#N)s3)n2)cc1 [Example 20, 2-({3-Methyl-6-[(2S)-2-(4-methylphenyl)pyrrolidin-1-yl]pyrazin-2-yl}amino)-1,3-thiazole-5-carbonitrile hydrochloride] |
